# Measured values as given in patent publication US20170340693A1, “DISLODGEMENT AND RELEASE OF HSC USING ALPHA 9 INTEGRIN ANTAGONIST AND CXCR4 ANTAGONIST” (COMMONWEALTH SCIENTIFIC AND INDUSTRIAL RESEARCH ORGANISATION, priority 2014, published 2017).
# Counter-ions that a name gives are not always drawn.
# Columns and labels:
# [1] = tested on: progenitors (LSK) and HSC (LSKSLAM) in peripheral blood; assay: HSC mobilization to peripheral blood in mice; type: in vivo
# Protocol: (§1) For mobilization experiments, all mice received subcutaneous injections at 100 μl/10 gm body weight and PB was harvested by throat bleed using EDTA coated syringes.
# (a) R-BC154 (IXb) and BOP. Mice received a single injection of freshly prepared solutions of R-BC154 (IXb) and BOP in saline at the doses indicated before PB was harvested by throat bleed at the times indicated.
# (b) G-CSF. Mice received G-CSF at 250 μg/kg twice daily (500 ug/kg/day), 6-8 hours apart for 4 consecutive days. Groups receiving G-CSF and BOP received the standard G-CSF regime as described above followed by a single injection of BOP 1 h prior to harvest. Control mice received an equal volume of saline.
# (§2) Mice received subcutaneous injections at 100 μl/10 gm body weight of a single injection of BOP (up to 15 mg/kg) for various timeframes, a single BIO5192 injection at 1 mg/kg for 1 hour, a single AMD3100 injection at 3 mg/kg for 1 hour (mice also receiving BOP or BIO15192 were injected with a single dose of BOP or BIO15192 1 hour prior to harvest), or G-CSF at 250 μg/kg twice daily (500 μg/kg/day), 6-8 hours apart for 4 consecutive days (mice also receiving BOP and/or AMD3100 were injected with a single dose of BOP and/or AMD3100 1 h prior to harvest). Control mice received an equivalent volume of saline or 10% HPβCD/saline where appropriate.
# [2] = tested on: WBC in peripheral blood; assay: PB white blood cell / lymphocyte content after mobilization; type: in vivo, mice; conditions: for WBC counts: peripheral blood after administration
# Protocol: as §1, §2
# [3] = tested on: LPP-CFC and HPP-CFC; assay: Low- and high-proliferative potential colony-forming cell assays of mobilized PB; parameters: species or system mice; conditions: mouse, in vivo
# Protocol: Low- and high-proliferative potential colony-forming cells (LPP-CFC and HPP-CFC, respectively) were assayed as previously described in J. Grassinger et al Cytokine, 2012, 58, 218-225 and Bartelmez, S. H. et al Experimental hematology 17, 240-245 (1989). Briefly, mobilized PB were lysed and 4000 WBCs were plated in 35 mm Petri dishes in a double-layer nutrient agar culture system containing recombinant mouse stem cell factor and recombinant human colony-stimulating factor-1, interleukin-1α (IL-1α), and IL-3. Cultures were incubated at 37° C. in a humidified incubator at 5% O2, 10% CO2, 85% N2. LPP-CFC and HPP-CFC were enumerated at 14 days of incubation as previously described in J. Grassinger, et al (2012).
# [4] = tested on: human WBC and human CD34+ stem and progenitors; assay: Mobilization of humanised NSG (huNSG) mice; type: in vivo; conditions: single dose, G-CSF multiple doses for 4-days
# Description: Humanised NSG mice were generated by tail vein injection of freshly sorted cord blood CD34^+ cells (>150 k) with 2×10^6 irradiated mononuclear support cells. After 4-weeks post-transplantation, NSG mice were eyebled and assessed for huCD45 and muCD45. Under these conditions, >90% humanisation was achieved as determined by flow cytometric analysis based on % huCD45 relative to total % CD45. Humanised NSG mice were given at least 1 week to recover prior to experimentation. Mice were mobilized under the relevant conditions specified in “Mobilization protocols” and PB subsequently collected by throatbleed, lysed and immunolabelled as described in “Antibody cocktails”.
# as §2
# [5] = molecular target: T1, α9β1 (Homo sapiens, UniProt P05556+Q13797); assay: Inhibition of R-BC154 (IXb) binding, transduced LN18 cells and CHO cells, flow cytometry; parameters: species or system human and murine; conditions: R-BC154 100 nM, antagonist 1 μM, 1 mM CaCl2MgCl2, 0° C. 30 min
# T1 construct: expressed in transfected cells; host or cells: LN18 (ATCC CRL-2610), retrovirally transduced; endogenous α4 silenced with pSM2c-shITGA4
# Protocol: (§3) For the assessment of α9β1 contribution to R-BC154 (IXb) binding, human and murine cells were stained with R-BC154 (100 nM) in the absence of competing antagonist or in the presence of excess amounts of the selective α4β1 antagonist BIO5192 (1 μM) or dual α4β1/α9β1 antagonist BOP (1 μM) in PBS containing 0.5% BSA and 1 mM CaCl2MgCl2 at 0° C. for 30 min. Cells were washed, immunolabelled as described above and analysed by flow cytometry. The contribution of α9β1 binding was calculated by measuring the difference in MFI between R-BC154 (IXb)+BIO5192 and +BOP and expressed as a % of R-BC154 (IXb) alone.
# [6] = tested on: cord blood (CB) mononuclear cells (MNC); assay: R-BC154 (IXb) binding to cord blood mononuclear cell populations, flow cytometry; type: cell-based, human; conditions: R-BC154 (100 nM) in the presence of excess selective α4β1 antagonist BIO5192 (1 μM) or dual α4β1/α9β1 antagonist BOP (1 μM)
# Protocol: For in vitro labelling experiments, 5×10^6 BM cells from C57 mice, conditional α4^−/−/α9^−/− mice and humanised NODSCIDIL2Rγ^−/− mice and human cord blood MNCs were treated with R-BC154 (IXb) (up to 300 nM) in PBS (0.5% BSA) or TBS (0.5% BSA) containing either 1 mM CaCl2/MgCl2 (activating) or 10 mM EDTA (deactivating) at 40×10^6 cells/ml for 20 mins at 4° C. Cells were washed with cold PBS (2% FBS) and then immunolabelled as described in “Antibody Cocktails” prior to flow cytometric analysis. For in vivo experiments, C57BL/6 mice, α4^−/−/α9^−/− vav-cre mice and humanised NODSCIDIL2Rγ^−/− mice received either intravenous or subcutaneous injections of R-BC154 (IXb) (5-10 mg/kg) at 100 ul/10 gm mouse weight and analysed as described above.
# as §3
# [7] = molecular target: α4β1 (Homo sapiens, UniProt P05556+P13612); conditions: cited from earlier work
# [8] = molecular target: α9β1 integrin (Homo sapiens, UniProt P05556+Q13797); assay: Inhibition of integrin binding to VCAM-1 and Opn in vitro
# [9] = molecular target: α4β1 integrin (Homo sapiens, UniProt P05556+P13612); assay: as above
# [10] = tested on: endosteal LSK; assay: In vivo BOP binding to endosteal versus central progenitors; parameters: species or system mice; conditions: mouse
# Description: Data is pooled from two independent experiments. n>6 (e) Analysis of in vivo BOP binding to endosteal versus central progenitors (LSK) and HSC (LSKSLAM) following the administration of BOP alone or BOP in combination with AMD3100. […] P<0.05
# [11] = tested on: α4β1 or α9β1 LN18 cells; conditions: Pepinsky et al (2002); cited from earlier work
# T1 sequence (Q13797 30-1035): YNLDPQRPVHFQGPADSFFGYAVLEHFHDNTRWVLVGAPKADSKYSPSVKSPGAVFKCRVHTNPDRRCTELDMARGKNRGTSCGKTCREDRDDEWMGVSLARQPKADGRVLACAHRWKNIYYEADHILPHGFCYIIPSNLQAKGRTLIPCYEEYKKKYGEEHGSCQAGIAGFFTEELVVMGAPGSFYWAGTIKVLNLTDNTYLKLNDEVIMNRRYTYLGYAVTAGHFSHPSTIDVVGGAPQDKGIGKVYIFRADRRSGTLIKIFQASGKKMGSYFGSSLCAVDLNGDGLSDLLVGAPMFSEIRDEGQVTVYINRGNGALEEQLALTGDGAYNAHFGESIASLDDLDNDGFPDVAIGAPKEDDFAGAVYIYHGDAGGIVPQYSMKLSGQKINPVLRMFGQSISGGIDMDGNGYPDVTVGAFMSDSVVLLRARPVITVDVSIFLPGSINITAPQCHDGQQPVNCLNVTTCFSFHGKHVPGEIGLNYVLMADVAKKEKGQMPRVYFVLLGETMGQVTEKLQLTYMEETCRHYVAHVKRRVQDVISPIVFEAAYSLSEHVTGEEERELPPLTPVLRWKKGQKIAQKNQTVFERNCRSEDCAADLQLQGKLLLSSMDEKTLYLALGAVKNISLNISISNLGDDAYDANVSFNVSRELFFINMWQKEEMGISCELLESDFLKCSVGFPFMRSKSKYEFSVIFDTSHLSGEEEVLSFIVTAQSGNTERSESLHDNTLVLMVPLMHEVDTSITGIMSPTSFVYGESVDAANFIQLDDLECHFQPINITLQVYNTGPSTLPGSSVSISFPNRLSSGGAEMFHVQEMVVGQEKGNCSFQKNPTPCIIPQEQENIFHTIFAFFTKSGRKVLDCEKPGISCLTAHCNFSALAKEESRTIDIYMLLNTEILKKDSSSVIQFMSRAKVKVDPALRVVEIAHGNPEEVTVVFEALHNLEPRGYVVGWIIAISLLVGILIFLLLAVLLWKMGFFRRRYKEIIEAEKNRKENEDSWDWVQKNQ
# T1 sequence (P05556 21-798): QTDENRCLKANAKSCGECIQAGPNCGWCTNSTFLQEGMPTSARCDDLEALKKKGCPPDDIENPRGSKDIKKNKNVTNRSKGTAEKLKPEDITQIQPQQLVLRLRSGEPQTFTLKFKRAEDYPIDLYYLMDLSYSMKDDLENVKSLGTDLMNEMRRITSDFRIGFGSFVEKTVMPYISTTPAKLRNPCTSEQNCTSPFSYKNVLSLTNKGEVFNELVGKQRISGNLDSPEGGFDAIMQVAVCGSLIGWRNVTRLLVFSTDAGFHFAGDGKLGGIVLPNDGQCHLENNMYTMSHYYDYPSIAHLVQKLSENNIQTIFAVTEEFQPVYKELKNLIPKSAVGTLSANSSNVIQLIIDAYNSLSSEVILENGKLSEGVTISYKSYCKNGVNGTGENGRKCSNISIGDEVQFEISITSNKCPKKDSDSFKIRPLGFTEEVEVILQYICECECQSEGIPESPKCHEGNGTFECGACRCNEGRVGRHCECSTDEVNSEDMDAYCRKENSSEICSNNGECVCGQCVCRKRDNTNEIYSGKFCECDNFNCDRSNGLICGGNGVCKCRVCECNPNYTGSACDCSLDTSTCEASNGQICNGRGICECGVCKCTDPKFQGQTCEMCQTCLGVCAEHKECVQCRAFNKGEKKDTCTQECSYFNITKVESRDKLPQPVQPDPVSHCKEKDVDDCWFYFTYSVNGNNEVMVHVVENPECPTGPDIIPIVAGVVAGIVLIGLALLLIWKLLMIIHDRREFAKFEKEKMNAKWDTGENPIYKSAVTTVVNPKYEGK
# Sequence of α4β1 (P13612 34-1032): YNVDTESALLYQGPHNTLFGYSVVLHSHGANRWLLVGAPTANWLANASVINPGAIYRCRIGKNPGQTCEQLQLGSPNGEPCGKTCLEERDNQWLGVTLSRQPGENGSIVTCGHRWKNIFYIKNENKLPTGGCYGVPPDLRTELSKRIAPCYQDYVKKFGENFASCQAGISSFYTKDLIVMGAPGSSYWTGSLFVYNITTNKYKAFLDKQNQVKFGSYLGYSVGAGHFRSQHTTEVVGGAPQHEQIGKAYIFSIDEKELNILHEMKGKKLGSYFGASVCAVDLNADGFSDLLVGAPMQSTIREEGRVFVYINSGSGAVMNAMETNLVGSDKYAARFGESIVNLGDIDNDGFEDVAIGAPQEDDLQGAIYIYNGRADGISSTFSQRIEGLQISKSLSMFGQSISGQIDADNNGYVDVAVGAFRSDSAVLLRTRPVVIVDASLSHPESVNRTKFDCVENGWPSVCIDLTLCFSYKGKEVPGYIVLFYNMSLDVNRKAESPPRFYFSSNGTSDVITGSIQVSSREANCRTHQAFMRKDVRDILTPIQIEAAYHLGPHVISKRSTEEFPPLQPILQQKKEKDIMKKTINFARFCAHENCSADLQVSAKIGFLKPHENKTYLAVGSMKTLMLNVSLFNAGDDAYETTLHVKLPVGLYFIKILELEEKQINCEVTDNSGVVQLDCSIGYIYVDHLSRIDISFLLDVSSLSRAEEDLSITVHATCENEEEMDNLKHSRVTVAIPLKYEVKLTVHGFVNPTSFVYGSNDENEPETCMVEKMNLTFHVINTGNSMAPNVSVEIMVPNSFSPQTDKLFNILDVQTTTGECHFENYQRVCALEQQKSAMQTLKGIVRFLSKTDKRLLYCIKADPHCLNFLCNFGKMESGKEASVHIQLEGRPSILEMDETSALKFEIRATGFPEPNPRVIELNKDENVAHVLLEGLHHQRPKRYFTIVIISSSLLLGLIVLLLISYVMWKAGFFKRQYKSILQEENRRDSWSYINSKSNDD
# Sequence of α4β1 (P05556 21-798): as the sequence (P05556 21-798) above
# Sequence of α4β1 integrin (P13612 34-1032): as the sequence (P13612 34-1032) above
# Sequence of α4β1 integrin (P05556 21-798): as the sequence (P05556 21-798) above
# Sequence of α9β1 integrin (Q13797 30-1035): as the sequence (Q13797 30-1035) above
# Sequence of α9β1 integrin (P05556 21-798): as the sequence (P05556 21-798) above
molecule,measurement,setting,value
"c1cc(CN2CCCNCCNCCCNCC2)ccc1CN1CCCNCCNCCCNCC1 [AMD3100, I,r-[I,4-Phenylenebis(methylene)]bis [1,4,8,11-tetraazacyclotetradecane]octohydrobromide dehydrate, reference compound]",increase in the proportion of progenitors (LSK cells) in the PB relative to BOP,"[1]; mouse, in vivo",comparable increases
same,WBC counts,[2],7.8±1.5 ×10^6/ml
same,HPP-CFC content of mobilized PB relative to the saline control,[3],greater
same,LPP-CFC content of mobilized PB relative to the saline control,[3],greater
same,increase in PB human WBC or human CD34 stem and progenitors,[4],did not result in a significant increase
"Cc1ccccc1NC(=O)Nc1ccc(CC(=O)N(C)[C@@H](CC(C)C)C(=O)NCC[C@H](NC(=O)[C@@H]2CCCN2S(=O)(=O)c2cc(Cl)cc(Cl)c2)C(=O)O)cc1 [BIO5192, reference compound]",inhibition of R-BC154 (IXb) binding to α9β1,[5],did not inhibit
same,inhibition of R-BC154 (IXb) binding to CB HSC and progenitors,[6],partial inhibition
same,inhibition of R-BC154 (IXb) binding to CB lineage committed cells,[6],complete inhibition
same,"increases in WBC counts, progenitors (LSK) and HSC (LSKSLAM) in the PB","[1]; Intravenous administration, alone",moderate increases
same,Kd,[7],< 0.01 nM
"O=C(O)[C@H](Cc1ccc(OC(=O)N2CCCC2)cc1)NC(=O)[C@@H]1CCCN1S(=O)(=O)c1ccccc1 [BOP, N-(Benzenesulfonyl)-L-prolyl-L-O-(1-pyrrolidinylcarbonyl)tyrosine]",inhibition of R-BC154 (IXb) binding to α9β1,[5],> 95%
same,"inhibitory potency, α9β1 binding to VCAM-1 and Opn",[8],nanomolar inhibitory potencies
same,"inhibitory potency, α4β1 binding to VCAM-1 and Opn",[9],nanomolar inhibitory potencies
same,inhibition of R-BC154 (IXb) binding to all CB cell populations,[6],complete inhibition
same,time of peak PB HSC,"[1]; mouse, in vivo",1 h
same,increase in the proportion of HSC (LSKSLAM cells) in the PB relative to AMD3100,[1]; p<0.05,significantly greater increase
same,increase in PB progenitors (LSK) and HSC (LSKSLAM),"[1]; single agent, single dose","rapid, significant and dose dependent increase"
same,return of PB progenitors and HSC to baseline post-administration,[1]; single dose,≤ 4 h
same,time of peak PB progenitors and HSC after a single dose,[1]; subcutaneous,60 min
same,WBC counts,[2],7.0±0.8 ×10^6/ml
same,total PB lymphocytes decreased to baseline,[2]; single dose,≤ 18 h
same,HPP-CFC content of mobilized PB relative to the saline control,[3],greater
same,LPP-CFC content of mobilized PB relative to the saline control,[3],greater
same,increase in PB human WBC or human CD34 stem and progenitors,[4],did not result in a significant increase
same,binding of BOP to endosteal LSK relative to their central counterparts in vivo,[10],significantly greater binding of BOP
same,off-rates for α9β1 compared to α4β1,[11],significantly reduced off-rates
"G-CSF: recombinant granulocyte-colony stimulating factor (protein, UniProt P09919 31-207, looked up) Granulocyte …: TPLGPASSLPQSFLLKCLEQVRKIQGDGAALQEKLVSECATYKLCHPEELVLLGHSLGIPWAPLSSCPSQALQLAGCLSQLHSGLFLYQGLLQALEGISPELGPTLDTLQLDVADFATTIWQQMEELGMAPALQPTQGAMPAFASAFQRRAGGVLVASHLQSFLEVSYRVLRHLAQP","progenitors mobilized, G-CSF alone versus single dose of BOP and AMD3100",[1]; 4-days of G-CSF,significantly greater number of progenitors
same,increase in PB human WBC or human CD34 stem and progenitors,[4],did not result in a significant increase
